Values quoted from earlier work in PubChem BioAssay AID1259409 (Chemical Carcinogenesis Research Information System (CCRIS), 2018).
Values joined by “and” are separate entries in the source; they are usually repeats but may differ in a detail not shown here. Equal values may be shown once.

System: rodent chemically induced tumor inhibition, incidence and multiplicity
Assay: CCRIS tumor inhibitor studies
Conditions: Dose [Inhibitor]: 0, Species: MOUSE

| SMILES | tumour outcome (control, treated, inhibition, significance) (Carcinogen: 7,12-DIMETHYLBENZ[A]ANTHRACENE, 57-97-6, 0.5 MG/G BW IN 0.9% SALINE ONCE 1 HR PRIOR TO FIRST PROMOTER DOSE (STUDY DURATION: 22 WK), Route [Inhibitor]: INTRAPERITONEAL, Strain/Sex: NMRI/FEMALE, Target Tissue: Type of Lesion: SKIN: PAPILLOMA, Dose [Carcinogen]: 50 UG/G BW IN SESAME OIL) | tumour outcome (control, treated, inhibition, significance) (Carcinogen: 7,12-DIMETHYLBENZ[A]ANTHRACENE, 57-97-6, 0.5 MG/G BW IN 0.9% SALINE ONCE 6 HR POST FIRST PROMOTER DOSE (STUDY DURATION: 22 WK), Route [Inhibitor]: INTRAPERITONEAL, Strain/Sex: NMRI/FEMALE, Target Tissue: Type of Lesion: SKIN: PAPILLOMA, Dose [Carcinogen]: 50 UG/G BW IN SESAME OIL) | tumour outcome (control, treated, inhibition, significance) (Carcinogen: 7,12-DIMETHYLBENZ[A]ANTHRACENE, 57-97-6, 0.5 MG/G BW IN 0.9% SALINE ONCE 12 HR POST FIRST PROMOTER DOSE (STUDY DURATION: 22 WK), Route [Inhibitor]: INTRAPERITONEAL, Strain/Sex: NMRI/FEMALE, Target Tissue: Type of Lesion: SKIN: PAPILLOMA, Dose [Carcinogen]: 50 UG/G BW IN SESAME OIL) | tumour outcome (control, treated, inhibition, significance) (Carcinogen: 7,12-DIMETHYLBENZ[A]ANTHRACENE, 57-97-6, 0.5 MG/G BW IN 0.9% SALINE ONCE 18 HR POST FIRST PROMOTER DOSE (STUDY DURATION: 22 WK), Route [Inhibitor]: INTRAPERITONEAL, Strain/Sex: NMRI/FEMALE, Target Tissue: Type of Lesion: SKIN: PAPILLOMA, Dose [Carcinogen]: 50 UG/G BW IN SESAME OIL) | tumour outcome (control, treated, inhibition, significance) (Carcinogen: 7,12-DIMETHYLBENZ[A]ANTHRACENE, 57-97-6, 0.5 MG/G BW IN 0.9% SALINE ONCE 24 HR POST FIRST PROMOTER DOSE (STUDY DURATION: 22 WK), Route [Inhibitor]: INTRAPERITONEAL, Strain/Sex: NMRI/FEMALE, Target Tissue: Type of Lesion: SKIN: PAPILLOMA, Dose [Carcinogen]: 50 UG/G BW IN SESAME OIL) | tumour outcome (control, treated, inhibition, significance) (Carcinogen: 7,12-DIMETHYLBENZ[A]ANTHRACENE, 57-97-6, 0.5 MG/G BW IN 0.9% SALINE ONCE 48 HR POST FIRST PROMOTER DOSE (STUDY DURATION: 22 WK), Route [Inhibitor]: INTRAPERITONEAL, Strain/Sex: NMRI/FEMALE, Target Tissue: Type of Lesion: SKIN: PAPILLOMA, Dose [Carcinogen]: 50 UG/G BW IN SESAME OIL) | tumour outcome (control, treated, inhibition, significance) (1 MG/KG IN 0.1 M PHOSPHATE BUFFER 5 D/WK FOR 105 WK (STUDY DURATION: 105 EK), Route [Inhibitor]: GAVAGE, Strain/Sex: B6C3F1/MALE, Target Tissue: Type of Lesion: LIVER: HEPATOCELLULAR ADENOMA OR CARCINOMA) | tumour outcome (control, treated, inhibition, significance) (3 MG/KG IN 0.1 M PHOSPHATE BUFFER 5 D/WK FOR 105 WK (STUDY DURATION: 105 WK), Route [Inhibitor]: GAVAGE, Strain/Sex: B6C3F1/FEMALE, Target Tissue: Type of Lesion: LIVER: HEPATOCELLULAR ADENOMA OR CARCINOMA) |
| --- | --- | --- | --- | --- | --- | --- | --- | --- |
| NC(=O)NO | 95%, 79%, 17%, not significant | 95%, 65%, 32%, not calculated | 95%, 60%, 37%, not calculated and 95%, 59%, 38%, not calculated | 95%, 33%, 65%, not calculated and 95%, 30%, 68%, not calculated and 93%, 33%, 65%, not calculated | 95%, 39%, 59%, not calculated and 95%, 45%, 53%, not calculated | 95%, 94%, 1%, not significant | – | – |
| C=C1C/C(=C/C)C(=O)O[C@@H]2CCN3CC=C(COC(=O)[C@@]1(O)CO)[C@H]23 | – | – | – | – | – | – | 36/50 (72%), 23/50 (46%), 36%, p<0.05 | 16/49 (33%), 0/50 (0%), 100%, p<0.01 |
